Reference: ChEMBL document CHEMBL2040846, “A new 9,11-secosterol from the soft coral Sinularia granosa” (Bioorg Med Chem Lett, 2012)
Converted amounts (≈) assume the structure as drawn.

Tests used:
HeLa = assay: Antiproliferative activity against human HeLa cells after 6 days by MTT assay; type: functional; settings: 144 h, read-out: ED50 (the source's name)
HEp-2 = assay: Antiproliferative activity against human Hep2 cells after 6 days by MTT assay; type: functional; settings: HEp-2, 144 h, read-out: ED50 (the source's name)
Daoy = assay: Antiproliferative activity against human DaOY cells after 6 days by MTT assay; type: functional; settings: 144 h, read-out: ED50 (the source's name)
MCF7 = assay: Antiproliferative activity against human MCF7 cells after 6 days by MTT assay; type: functional; settings: MCF7, 144 h, read-out: ED50 (the source's name)
RAW264.7 [1] = assay: Antiinflammatory activity in mouse RAW264.7 cells assessed as inhibition of LPS-induced iNOS expression at 10 uM incubated for 10 mins prior to LPS-challenge measured after 16 hrs by Western blot analysis relative to control; type: functional
RAW264.7 [2] = assay: Antiinflammatory activity in mouse RAW264.7 cells assessed as inhibition of LPS-induced COX2 expression at 10 uM incubated for 10 mins prior to LPS-challenge measured after 16 hrs by Western blot analysis relative to control; type: functional
RAW264.7 [3] = assay: Effect on beta-actin protein expression in LPS-induced mouse RAW264.7 cells at 10 uM incubated for 10 mins prior to LPS-challenge measured after 16 hrs by Western blot analysis relative to control; type: ADME, cell-based; settings: raw264.7, 16 h
RAW264.7 [4] = assay: Toxicity against mouse RAW264.7 cells; type: cell-based

| EC50 (HeLa) [µg/mL] | EC50 (MCF7) [µg/mL] | Activity (RAW264.7 [3]) [%] | Structure (SMILES) | EC50 (HEp-2) [µg/mL] | EC50 (Daoy) [µg/mL] | inhibition at 10 µM (RAW264.7 [1]) [%] | inhibition at 10 µM (RAW264.7 [2]) [%] | Activity (RAW264.7 [4]) |
| --- | --- | --- | --- | --- | --- | --- | --- | --- |
| 8.21 (≈ 18.4 µM) | 4.99 (≈ 11.2 µM) | 102.3 | C=C(CC[C@@H](C)[C@H]1CC[C@@H]([C@H]2C[C@@H]3O[C@@]34C[C@@H](O)CC[C@]4(C)C2=O)[C@]1(C)CCO)C(C)C | 6.21 (≈ 13.9 µM) | 5.53 (≈ 12.4 µM) | 66.1 | 42.7 | Non-toxic |
| > 40 | 9.98 (≈ 22.3 µM) | 108.9 | C=C(CC[C@@H](C)[C@H]1CC[C@@H]([C@@H]2C[C@H]3O[C@]34C[C@@H](O)CC[C@]4(C)C2=O)[C@]1(C)CCO)C(C)C | > 40 | 7.07 (≈ 15.8 µM) | 19.4 |  | Non-toxic |
| 0.13 (≈ 0.389 µM) | 0.09 (≈ 0.269 µM) |  | CO[C@@]12[C@H](COC(N)=O)C3=C(C(=O)C(C)=C(N)C3=O)N1C[C@@H]1N[C@@H]12 [MITOMYCIN] | 0.12 (≈ 0.359 µM) | 0.08 (≈ 0.239 µM) |  |  |  |
